In ChEMBL document CHEMBL3044736, “Synthesis, characterization, solvatochromic properties, and antimicrobial evaluation of 5-acetyl-2-thioxo-dihydro-pyrimidine-4,6-dione-based chalcones” (2013):
Converted amounts (≈) assume the structure as drawn.

How the values were obtained:
Assay type in all cases: functional
Penicillium [1] = assay: Antimicrobial activity against Penicillium wild strain assessed as diameter of growth inhibition zone at 250 ug/ml after 48-96 hr by agar cup diffusion method; details: read-out: DIZ
Penicillium [2] = assay: Antimicrobial activity against Penicillium wild strain assessed as diameter of growth inhibition zone at 100 ug/ml after 48-96 hr by agar cup diffusion method; details: read-out: DIZ
Trichophyton rubrum [3] = assay: Antimicrobial activity against Trichophyton rubrum MTCC 296 assessed as diameter of growth inhibition zone at 100 ug/ml after 48-96 hr by agar cup diffusion method; details: read-out: DIZ
Aspergillus clavatus [4] = assay: Antimicrobial activity against Aspergillus clavatus MTCC 1323 assessed as diameter of growth inhibition zone at 100 ug/ml after 48-96 hr by agar cup diffusion method; details: read-out: DIZ
Candida albicans [5] = assay: Antimicrobial activity against Candida albicans MTCC 227 assessed as diameter of growth inhibition zone at 100 ug/ml after 48-96 hr by agar cup diffusion method; details: read-out: DIZ
Penicillium [6] = assay: Antimicrobial activity against Penicillium wild strain assessed as diameter of growth inhibition zone at 50 ug/ml after 48-96 hr by agar cup diffusion method; details: read-out: DIZ
Trichophyton rubrum [7] = assay: Antimicrobial activity against Trichophyton rubrum MTCC 296 assessed as diameter of growth inhibition zone at 50 ug/ml after 48-96 hr by agar cup diffusion method; details: read-out: DIZ
Aspergillus clavatus [8] = assay: Antimicrobial activity against Aspergillus clavatus MTCC 1323 assessed as diameter of growth inhibition zone at 50 ug/ml after 48-96 hr by agar cup diffusion method; details: read-out: DIZ
Candida albicans [9] = assay: Antimicrobial activity against Candida albicans MTCC 227 assessed as diameter of growth inhibition zone at 50 ug/ml after 48-96 hr by agar cup diffusion method; details: read-out: DIZ
Penicillium [10] = assay: Antimicrobial activity against Penicillium wild strain assessed as diameter of growth inhibition zone at 25 ug/ml after 48-96 hr by agar cup diffusion method; details: read-out: DIZ
Trichophyton rubrum [11] = assay: Antimicrobial activity against Trichophyton rubrum MTCC 296 assessed as diameter of growth inhibition zone at 25 ug/ml after 48-96 hr by agar cup diffusion method; details: read-out: DIZ
Aspergillus clavatus [12] = assay: Antimicrobial activity against Aspergillus clavatus MTCC 1323 assessed as diameter of growth inhibition zone at 25 ug/ml after 48-96 hr by agar cup diffusion method; details: read-out: DIZ
Candida albicans [13] = assay: Antimicrobial activity against Candida albicans MTCC 227 assessed as diameter of growth inhibition zone at 25 ug/ml after 48-96 hr by agar cup diffusion method; details: read-out: DIZ
Penicillium [14] = assay: Antimicrobial activity against Penicillium wild strain by agar cup diffusion method
Aspergillus clavatus [15] = assay: Antimicrobial activity against Aspergillus clavatus MTCC 1323 by agar cup diffusion method
Pseudomonas aeruginosa [16] = assay: Antimicrobial activity against Pseudomonas aeruginosa MTCC 1688 assessed as diameter of growth inhibition zone at 25 ug/ml after 18-24 hr by agar cup diffusion method; details: read-out: DIZ
Escherichia coli [17] = assay: Antimicrobial activity against Escherichia coli MTCC 443 assessed as diameter of growth inhibition zone at 25 ug/ml after 18-24 hr by agar cup diffusion method; details: read-out: DIZ
Staphylococcus aureus [18] = assay: Antimicrobial activity against Staphylococcus aureus MTCC 96 assessed as diameter of growth inhibition zone at 25 ug/ml after 18-24 hr by agar cup diffusion method; details: read-out: DIZ
Streptococcus pyogenes [19] = assay: Antimicrobial activity against Streptococcus pyogenes MTCC 442 assessed as diameter of growth inhibition zone at 25 ug/ml after 18-24 hr by agar cup diffusion method; details: read-out: DIZ
Klebsiella pneumoniae [20] = assay: Antimicrobial activity against Klebsiella pneumoniae MTCC 109 by agar cup diffusion method
Escherichia coli [21] = assay: Antimicrobial activity against Escherichia coli MTCC 443 by agar cup diffusion method
Pseudomonas aeruginosa [22] = assay: Antimicrobial activity against Pseudomonas aeruginosa MTCC 1688 by agar cup diffusion method
Staphylococcus aureus [23] = assay: Antimicrobial activity against Staphylococcus aureus MTCC 96 by agar cup diffusion method
Streptococcus pyogenes [24] = assay: Antimicrobial activity against Streptococcus pyogenes MTCC 442 by agar cup diffusion method
Trichophyton rubrum [25] = assay: Antimicrobial activity against Trichophyton rubrum MTCC 296 by agar cup diffusion method
Candida albicans [26] = assay: Antimicrobial activity against Candida albicans MTCC 227 by agar cup diffusion method
Klebsiella pneumoniae [27] = assay: Antimicrobial activity against Klebsiella pneumoniae MTCC 109 assessed as diameter of growth inhibition zone at 250 ug/ml after 18-24 hr by agar cup diffusion method; details: read-out: DIZ
Pseudomonas aeruginosa [28] = assay: Antimicrobial activity against Pseudomonas aeruginosa MTCC 1688 assessed as diameter of growth inhibition zone at 250 ug/ml after 18-24 hr by agar cup diffusion method; details: read-out: DIZ
Escherichia coli [29] = assay: Antimicrobial activity against Escherichia coli MTCC 443 assessed as diameter of growth inhibition zone at 250 ug/ml after 18-24 hr by agar cup diffusion method; details: read-out: DIZ
Staphylococcus aureus [30] = assay: Antimicrobial activity against Staphylococcus aureus MTCC 96 assessed as diameter of growth inhibition zone at 250 ug/ml after 18-24 hr by agar cup diffusion method; details: read-out: DIZ
Streptococcus pyogenes [31] = assay: Antimicrobial activity against Streptococcus pyogenes MTCC 442 assessed as diameter of growth inhibition zone at 250 ug/ml after 18-24 hr by agar cup diffusion method; details: read-out: DIZ
Klebsiella pneumoniae [32] = assay: Antimicrobial activity against Klebsiella pneumoniae MTCC 109 assessed as diameter of growth inhibition zone at 100 ug/ml after 18-24 hr by agar cup diffusion method; details: read-out: DIZ
Pseudomonas aeruginosa [33] = assay: Antimicrobial activity against Pseudomonas aeruginosa MTCC 1688 assessed as diameter of growth inhibition zone at 100 ug/ml after 18-24 hr by agar cup diffusion method; details: read-out: DIZ
Escherichia coli [34] = assay: Antimicrobial activity against Escherichia coli MTCC 443 assessed as diameter of growth inhibition zone at 100 ug/ml after 18-24 hr by agar cup diffusion method; details: read-out: DIZ
Staphylococcus aureus [35] = assay: Antimicrobial activity against Staphylococcus aureus MTCC 96 assessed as diameter of growth inhibition zone at 100 ug/ml after 18-24 hr by agar cup diffusion method; details: read-out: DIZ
Streptococcus pyogenes [36] = assay: Antimicrobial activity against Streptococcus pyogenes MTCC 442 assessed as diameter of growth inhibition zone at 100 ug/ml after 18-24 hr by agar cup diffusion method; details: read-out: DIZ
Klebsiella pneumoniae [37] = assay: Antimicrobial activity against Klebsiella pneumoniae MTCC 109 assessed as diameter of growth inhibition zone at 50 ug/ml after 18-24 hr by agar cup diffusion method; details: read-out: DIZ
Pseudomonas aeruginosa [38] = assay: Antimicrobial activity against Pseudomonas aeruginosa MTCC 1688 assessed as diameter of growth inhibition zone at 50 ug/ml after 18-24 hr by agar cup diffusion method; details: read-out: DIZ
Escherichia coli [39] = assay: Antimicrobial activity against Escherichia coli MTCC 443 assessed as diameter of growth inhibition zone at 50 ug/ml after 18-24 hr by agar cup diffusion method; details: read-out: DIZ
Staphylococcus aureus [40] = assay: Antimicrobial activity against Staphylococcus aureus MTCC 96 assessed as diameter of growth inhibition zone at 50 ug/ml after 18-24 hr by agar cup diffusion method; details: read-out: DIZ
Streptococcus pyogenes [41] = assay: Antimicrobial activity against Streptococcus pyogenes MTCC 442 assessed as diameter of growth inhibition zone at 50 ug/ml after 18-24 hr by agar cup diffusion method; details: read-out: DIZ
Klebsiella pneumoniae [42] = assay: Antimicrobial activity against Klebsiella pneumoniae MTCC 109 assessed as diameter of growth inhibition zone at 25 ug/ml after 18-24 hr by agar cup diffusion method; details: read-out: DIZ
Trichophyton rubrum [43] = assay: Antimicrobial activity against Trichophyton rubrum MTCC 296 assessed as diameter of growth inhibition zone at 250 ug/ml after 48-96 hr by agar cup diffusion method; details: read-out: DIZ
Aspergillus clavatus [44] = assay: Antimicrobial activity against Aspergillus clavatus MTCC 1323 assessed as diameter of growth inhibition zone at 250 ug/ml after 48-96 hr by agar cup diffusion method; details: read-out: DIZ
Candida albicans [45] = assay: Antimicrobial activity against Candida albicans MTCC 227 assessed as diameter of growth inhibition zone at 250 ug/ml after 48-96 hr by agar cup diffusion method; details: read-out: DIZ

Cc1ccc(/C=C/C(=O)C2C(=O)NC(=S)NC2=O)cc1
zone of inhibition at 250 µg/mL (Penicillium [1]): 22 mm | zone of inhibition at 100 µg/mL (Penicillium [2]): 19 mm | zone of inhibition at 100 µg/mL (Trichophyton rubrum [3]): 22 mm | zone of inhibition at 100 µg/mL (Aspergillus clavatus [4]): 22 mm | zone of inhibition at 100 µg/mL (Candida albicans [5]): 21 mm | zone of inhibition at 50 µg/mL (Penicillium [6]): 18 mm | zone of inhibition at 50 µg/mL (Trichophyton rubrum [7]): 20 mm | zone of inhibition at 50 µg/mL (Aspergillus clavatus [8]): 22 mm | zone of inhibition at 50 µg/mL (Candida albicans [9]): 20 mm | zone of inhibition at 25 µg/mL (Penicillium [10]): 18 mm | zone of inhibition at 25 µg/mL (Trichophyton rubrum [11]): 19 mm | zone of inhibition at 25 µg/mL (Aspergillus clavatus [12]): 21 mm | zone of inhibition at 25 µg/mL (Candida albicans [13]): 19 mm | MFC (Penicillium [14]): > 1000 µg/mL | MIC (Penicillium [14]): > 1000 µg/mL | MFC (Aspergillus clavatus [15]): > 1000 µg/mL | MIC (Aspergillus clavatus [15]): > 1000 µg/mL | zone of inhibition at 25 µg/mL (Pseudomonas aeruginosa [16]): 10 mm | zone of inhibition at 25 µg/mL (Escherichia coli [17]): 15 mm | zone of inhibition at 25 µg/mL (Staphylococcus aureus [18]): 10 mm | zone of inhibition at 25 µg/mL (Streptococcus pyogenes [19]): 15 mm | MBC (Klebsiella pneumoniae [20]): 100 µg/mL (≈ 347 µM) | MIC (Klebsiella pneumoniae [20]): 100 µg/mL (≈ 347 µM) | MBC (Escherichia coli [21]): 200 µg/mL (≈ 694 µM) | MIC (Escherichia coli [21]): 100 µg/mL (≈ 347 µM) | MBC (Pseudomonas aeruginosa [22]): 500 µg/mL (≈ 1730 µM) | MIC (Pseudomonas aeruginosa [22]): 250 µg/mL (≈ 867 µM) | MBC (Staphylococcus aureus [23]): 125 µg/mL (≈ 434 µM) | MIC (Staphylococcus aureus [23]): 125 µg/mL (≈ 434 µM) | MBC (Streptococcus pyogenes [24]): 200 µg/mL (≈ 694 µM) | MIC (Streptococcus pyogenes [24]): 250 µg/mL (≈ 867 µM) | MFC (Trichophyton rubrum [25]): > 1000 µg/mL | MIC (Trichophyton rubrum [25]): > 1000 µg/mL | MFC (Candida albicans [26]): > 1000 µg/mL | MIC (Candida albicans [26]): 1000 µg/mL (≈ 3470 µM) | zone of inhibition at 250 µg/mL (Klebsiella pneumoniae [27]): 17 mm | zone of inhibition at 250 µg/mL (Pseudomonas aeruginosa [28]): 17 mm | zone of inhibition at 250 µg/mL (Escherichia coli [29]): 19 mm | zone of inhibition at 250 µg/mL (Staphylococcus aureus [30]): 17 mm | zone of inhibition at 250 µg/mL (Streptococcus pyogenes [31]): 19 mm | zone of inhibition at 100 µg/mL (Klebsiella pneumoniae [32]): 15 mm | zone of inhibition at 100 µg/mL (Pseudomonas aeruginosa [33]): 16 mm | zone of inhibition at 100 µg/mL (Escherichia coli [34]): 18 mm | zone of inhibition at 100 µg/mL (Staphylococcus aureus [35]): 16 mm | zone of inhibition at 100 µg/mL (Streptococcus pyogenes [36]): 18 mm | zone of inhibition at 50 µg/mL (Klebsiella pneumoniae [37]): 14 mm | zone of inhibition at 50 µg/mL (Pseudomonas aeruginosa [38]): 12 mm | zone of inhibition at 50 µg/mL (Escherichia coli [39]): 15 mm | zone of inhibition at 50 µg/mL (Staphylococcus aureus [40]): 12 mm | zone of inhibition at 50 µg/mL (Streptococcus pyogenes [41]): 15 mm | zone of inhibition at 25 µg/mL (Klebsiella pneumoniae [42]): 12 mm | zone of inhibition at 250 µg/mL (Trichophyton rubrum [43]): 25 mm | zone of inhibition at 250 µg/mL (Aspergillus clavatus [44]): 25 mm | zone of inhibition at 250 µg/mL (Candida albicans [45]): 24 mm
